From US8686044B2, “Amide derivative, pest control agent containing the amide derivative, and use of the amide derivative” (Mitsui Chemicals Agro, Inc., priority 2008, dated 2014)

Experiments:
Format in all cases: in vivo
[1] = tested on: Spodoptera litura; experiment: Pesticidal test against Spodoptera litura (cabbage leaf dip); conditions: foliar, 144 h, concentration 1 ppm, 2-stage larvae, examined after 6 days, 25° C., read-out: pesticidal rate
Method in brief: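 Cabbage leaf pieces dipped 30 seconds in compound solution at a predetermined concentration and air-dried, then offered to second-stage larvae, five per group in two replicates. Held at 25° C. Living and dead larvae counted after 6 days.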

[2] = tested on: Plutella xylostella; experiment: Pesticidal test against Plutella xylostella (cabbage leaf dip); conditions: foliar, 144 h, concentration 1 ppm, 2-stage larvae, examined after 6 days, 25° C., read-out: pesticidal rate
Method in brief: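 Cabbage leaf pieces dipped 30 s in test solution at a predetermined concentration, air-dried, then offered to 2nd-instar larvae, five per group in duplicate. Held at 25° C; living and dead larvae counted after 6 days.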

[3] = tested on: Coptotermes formosanus; experiment: Pesticidal test against Coptotermes formosanus (treated filter paper); conditions: 120 h, concentration 30 ppm, examined after 5 days of treatment, 28° C., read-out: pesticidal rate
Experimental: Pesticidal Test against Coptotermes formosanus
20 μl of an acetone solution in which a test compound had been prepared at a predetermined concentration was added dropwise to the filter paper having a diameter of […] included in a polypropylene cup, and air-dried, and then 20 μl of water was added thereto. Coptotermes formosanus was released and the cup was capped. They were left to stand in a thermostatic chamber at 28° C., and the numbers of the living pests and the dead pests were examined after 5 days of treatment. The test was carried out with ten larvae per group in two replicates.

[4] = tested on: Adoxophyes honmai; experiment: Pesticidal test against Adoxophyes honmai (artificial feed dip); conditions: 144 h, 2-stage larvae, examined after 6 days, 25° C., read-out: pesticidal rate; for pest or weed control at 1 ppm: concentration 1 ppm; for pest or weed control at 10 ppm: concentration 10 ppm
Method in brief: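 Thin artificial feed slices dipped 30 s in test solution at a predetermined concentration, air-dried, then offered to 2nd-stage larvae. Kept at 25° C; live and dead larvae counted after 6 days. Five larvae per group, two replicates.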

[5] = tested on: Choristoneura magnanima; experiment: Pesticidal test against Choristoneura magnanima (artificial feed dip); conditions: 144 h, 2-stage larvae, examined after 6 days, 25° C., read-out: pesticidal rate; for pest or weed control at 10 ppm: concentration 10 ppm; for pest or weed control at 1 ppm: concentration 1 ppm
Method in brief: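 Thin artificial feed slices dipped 30 s in compound solution at a set concentration, air-dried, then offered to 2nd-stage larvae held at 25° C. Living and dead larvae counted after 6 days; five larvae per group, two replicates.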

[6] = tested on: Laodelphax striatellus; experiment: Pesticidal test against Laodelphax striatellus (rice seedling spray); conditions: 144 h, concentration 100 ppm, 3-stage larvae, examined after 6 days, 25° C., read-out: pesticidal rate
Method in brief: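 Rice seedlings sprayed with 2.5 ml acetone solution of compound at a predetermined concentration, air-dried, then infested with third-stage Laodelphax striatellus larvae in capped water-containing tubes at 25 °C. Living and dead insects counted after 6 days; ten larvae per group, two replicates.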

[7] = tested on: Helicoverpa armigera; experiment: Pesticidal test against Helicoverpa armigera (cabbage leaf disk dip); conditions: foliar, 72 h, concentration 1 ppm, 2-stage larvae, examined after 3 days, 25° C., read-out: pesticidal rate
Method in brief: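 Cabbage leaf disks were dipped for 30 s in test solution at a set concentration and air-dried. Second-instar larvae were placed one per hole and held at 25 °C, with live and dead counts taken after 3 days. Five larvae per group were tested in two replicates.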

[8] = tested on: Musca domestica; experiment: Pesticidal test against Musca domestica (petri dish dry film); conditions: 24 h, concentration 100 ppm, female adults, examined after 1 day, 25° C., read-out: pesticidal rate
Method in brief: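 Dry film from 1 ml acetone solution of compound at a predetermined concentration, air-dried in a 9 cm petri dish; female adult flies released and dish capped. Held at 25° C; living and dead counted after 1 day. Five insects per group, two replicates.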

[9] = tested on: Blattella germanica; experiment: Pesticidal test against Blattella germanica (petri dish dry film); conditions: 24 h, concentration 100 ppm, female adults, examined after 1 day, 25° C., read-out: pesticidal rate
Method in brief: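 Acetone solution of test compound at a predetermined concentration dried as a film in a 9 cm petri dish; female adult cockroaches released onto it and kept at 25° C. Living and dead counted after 1 day; five insects per group, two replicates.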

[10] = tested on: Ctenocephalides Felis; experiment: Insecticidal test for Ctenocephalides felis, Test Example 1 (dry film in glass tube, 0.5 ml, Table A4); conditions: Ctenocephalides felis, adults, after 24 hours of the exposure, in triplicate, read-out: death rate; for pest or weed control at 0.1 µg/mL: concentration 0.1 μg/ml; for pest or weed control at 1 µg/mL: concentration 1.0 μg/ml
Experimental: Insecticidal Test for Ctenocephalides Felis
0.5 ml of a solution of acetone, the active ingredient, prepared to the prescribed concentration was added dropwise to a glass tube with a flat bottom (internal diameter: 2.6 cm, bottom area: 5.3 cm^2, height: 12 cm), and the solvent was evaporated at room temperature to form a dry film of the agent on the bottom surface. About 10 adults of Ctenocephalides Felis per glass tube were added, and the adults were contact-exposed to the test compound. After 24 hours of the exposure, the conditions of the adults were examined and classified into “alive” and “dead (including a moribund condition)” to determine the death rate (in triplicate).
As the comparative compounds, the following Compounds (A), (B), and (C) disclosed in WO2009/080203, and fipronil were used.

[11] = tested on: Rhipicephalus sanguineus; experiment: Insecticidal test for Rhipicephalus sanguineus (treated glass petri dish, Table A6); conditions: adults of Rhipicephalus sanguineus, 18 hour exposure, examined after 48 hours, in single
Experimental: Insecticidal Test for Rhipicephalus sanguineus
0.5 ml of a solution of acetone, the active ingredient, prepared to the prescribed dose was added dropwise into a glass petri dish with a diameter of 10 cm, and the acetone was evaporated at room temperature. About 10 adults of Rhipicephalus sanguineus per dish were added, and the dish was covered by another glass petri dish that was treated with the active ingredient in the same manner described above. After 18 hour exposure to the test substance, the adults were transferred into a glass petri dish that was not treated with the active ingredient. After 48 hours of the exposure, the conditions of the adults were examined and classified into “alive” and “dead (including a moribund condition)” to determine the death rate (in single).
As the comparative compounds, said Compounds (B), (C), and (D), and the following Compound (F) disclosed in WO2009/080203, and fipronil were used.

For `O=C(Nc1c(I)cc(C(F)(C(F)(F)F)C(F)(F)F)cc1C(F)(F)F)c1cccc(NC(=O)c2cccnc2Cl)c1` [6-460, 2-chloro-N-(3-(2-iodo-4-(perfluoropropan-2-yl)-6-(trifluoromethyl)phenylcarbamoyl)phenyl)nicotinamide], the pest or weed control at 1 ppm [1] was ≥ 70%, the pest or weed control at 1 ppm [2] was ≥ 70% and the pest or weed control at 30 ppm [3] was ≥ 70%. The pest or weed control at 1 ppm [4] was ≥ 70%, the pest or weed control at 10 ppm [5] was ≥ 70% and the pest or weed control at 100 ppm [6] was ≥ 70%. The pest or weed control at 1 ppm [7] was ≥ 70% and the pest or weed control at 100 ppm [8] was ≥ 70%.
`O=C(Nc1cccc(C(=O)Nc2c(I)cc(C(F)(C(F)(F)F)C(F)(F)F)cc2I)c1F)c1ccccc1` [6-1260, 3-benzamide-N-(2,6-diiodo-4-(perfluoropropan-2-yl)phenyl)-2-fluorobenzamide] was tested, and the pest or weed control at 1 ppm [1] was ≥ 70%, the pest or weed control at 1 ppm [2] was ≥ 70% and the pest or weed control at 30 ppm [3] was ≥ 70%. The pest or weed control at 1 ppm [4] was ≥ 70%, the pest or weed control at 1 ppm [5] was ≥ 70% and the pest or weed control at 100 ppm [6] was ≥ 70%. For the same compound, the pest or weed control at 1 ppm [7] was ≥ 70% and the pest or weed control at 100 ppm [8] was ≥ 70%.
`O=C(Nc1cccc(C(=O)Nc2c(Br)cc(C(F)(C(F)(F)F)C(F)(F)C(F)(F)F)cc2C(F)(F)F)c1F)c1ccccc1` (centres unmarked) [6-1652] was tested, and the pest or weed control at 1 ppm [1] was ≥ 70%, the pest or weed control at 1 ppm [2] was ≥ 70% and the pest or weed control at 30 ppm [3] was ≥ 70%. The pest or weed control at 1 ppm [4] was ≥ 70%, the pest or weed control at 1 ppm [5] was ≥ 70% and the pest or weed control at 100 ppm [6] was ≥ 70%. The pest or weed control at 1 ppm [7] was ≥ 70% and the pest or weed control at 100 ppm [8] was ≥ 70%.
`O=C(Nc1cccc(C(=O)Nc2c(I)cc(C(F)(C(F)(F)F)C(F)(F)F)cc2C(F)(F)F)c1F)c1ccc(F)cc1` [6-1733, 2-fluoro-3-(4-fluorobenzamide)-N-(2-iodo-4-(heptafluoropropan-2-yl)-6-(trifluoromethyl)phenyl)benzamide] was tested, and the pest or weed control at 1 ppm [1] was ≥ 70%, the pest or weed control at 100 ppm [9] was ≥ 70% and the pest or weed control at 1 ppm [2] was ≥ 70%. For the same compound, the pest or weed control at 1 ppm [4] was ≥ 70%, the pest or weed control at 0.1 µg/mL [10] was 70% and the pest or weed control at 1 ppm [5] was ≥ 70%. The pest or weed control at 100 ppm [6] was ≥ 70%, the pest or weed control at 1 ppm [7] was ≥ 70% and the pest or weed control at 100 ppm [8] was ≥ 70%.
With `CN(C(=O)c1ccccc1)c1cccc(C(=O)Nc2c(Br)cc(C(F)(C(F)(F)F)C(F)(F)F)cc2C(F)(F)F)c1` [7-268] the pest or weed control at 1 ppm [1] was ≥ 70%, the pest or weed control at 100 ppm [9] was ≥ 70% and the pest or weed control at 1 ppm [2] was ≥ 70%. For the same compound, the pest or weed control at 30 ppm [3] was ≥ 70%, the pest or weed control at 100 ppm [6] was ≥ 70% and the pest or weed control at 100 ppm [8] was ≥ 70%.
For `CN(C(=O)c1ccccc1)c1cccc(C(=O)Nc2c(I)cc(C(F)(C(F)(F)F)C(F)(F)F)cc2C(F)(F)F)c1` [7-424], the pest or weed control at 1 ppm [1] was ≥ 70%, the pest or weed control at 100 ppm [9] was ≥ 70% and the pest or weed control at 1 ppm [2] was ≥ 70%. The pest or weed control at 30 ppm [3] was ≥ 70%, the pest or weed control at 10 ppm [4] was ≥ 70% and the pest or weed control at 10 ppm [5] was ≥ 70%. The pest or weed control at 100 ppm [6] was ≥ 70%, the pest or weed control at 1 ppm [7] was ≥ 70% and the pest or weed control at 100 ppm [8] was ≥ 70%.
With `CN(C(=O)c1ccc(F)cc1)c1cccc(C(=O)Nc2c(Br)cc(C(F)(C(F)(F)F)C(F)(F)F)cc2C(F)(F)F)c1F` [7-1577] the pest or weed control at 1 ppm [1] was ≥ 70%, the pest or weed control at 100 ppm [9] was ≥ 70% and the pest or weed control at 1 ppm [2] was ≥ 70%. The pest or weed control at 30 ppm [3] was ≥ 70%, the pest or weed control at 10 ppm [4] was ≥ 70% and the pest or weed control at 1 ppm [5] was ≥ 70%. The pest or weed control at 100 ppm [6] was ≥ 70%, the pest or weed control at 1 ppm [7] was ≥ 70% and the pest or weed control at 100 ppm [8] was ≥ 70%.
In the case of `CN(C(=O)c1ccccc1)c1cccc(C(=O)Nc2c(I)cc(C(F)(C(F)(F)F)C(F)(F)F)cc2C(F)(F)F)c1F` [7-1730], the pest or weed control at 1 ppm [1] is reported as ≥ 70%, the pest or weed control at 1 ppm [2] is reported as ≥ 70% and the pest or weed control at 30 ppm [3] is reported as ≥ 70%. The pest or weed control at 1 ppm [4] was ≥ 70%, the pest or weed control at 1 ppm [5] was ≥ 70% and the pest or weed control at 100 ppm [6] was ≥ 70%. For the same compound, the pest or weed control at 1 ppm [7] was ≥ 70% and the pest or weed control at 100 ppm [8] was ≥ 70%.
In the case of `CN(C(=O)c1cccc(F)c1)c1cccc(C(=O)Nc2c(I)cc(C(F)(C(F)(F)F)C(F)(F)F)cc2C(F)(F)F)c1F` [7-1732, 2-fluoro-3-(3-fluoro-N-methylbenzamide)-N-(2-iodo-4-(heptafluoropropan-2-yl)-6-(trifluoromethyl)phenyl)benzamide], the pest or weed control at 1 ppm [1] is reported as ≥ 70%, the pest or weed control at 100 ppm [9] is reported as ≥ 70% and the pest or weed control at 1 ppm [2] is reported as ≥ 70%. The pest or weed control at 30 ppm [3] was ≥ 70%, the pest or weed control at 1 ppm [4] was ≥ 70% and the pest or weed control at 0.1 µg/mL [10] was 76.7%. For the same compound, the pest or weed control at 1 ppm [5] was ≥ 70%, the pest or weed control at 100 ppm [6] was ≥ 70% and the pest or weed control at 1 ppm [7] was ≥ 70%. For the same compound, the pest or weed control at 100 ppm [8] was ≥ 70%.
`CN(C(=O)c1ccc(Cl)nc1)c1cccc(C(=O)Nc2c(I)cc(C(F)(C(F)(F)F)C(F)(F)C(F)(F)F)cc2C(F)(F)F)c1F` (centres unmarked) [7-1851] was tested, and the pest or weed control at 1 ppm [1] was ≥ 70%, the pest or weed control at 100 ppm [9] was ≥ 70% and the pest or weed control at 1 ppm [2] was ≥ 70%. For the same compound, the pest or weed control at 10 ppm [4] was ≥ 70%, the pest or weed control at 1 ppm [5] was ≥ 70% and the pest or weed control at 100 ppm [6] was ≥ 70%. The pest or weed control at 1 ppm [7] was ≥ 70% and the pest or weed control at 100 ppm [8] was ≥ 70%.
In the case of `Cc1cc(C(F)(C(F)(F)F)C(F)(F)F)cc(C)c1NC(=O)c1cccc(NC(=O)c2cccnc2F)c1` [compound (A), reference compound], the pest or weed control at 1 µg/mL [10] is reported as 0%.
`O=C(Nc1cccc(C(=O)Nc2c(I)cc(C(F)(C(F)(F)F)C(F)(F)F)cc2I)c1)c1ccccc1` [compound (B)] was tested, and the death rate ([11]; 0.673 mg/m^2) was 0.0%, the death rate ([11]; 2.69 mg/m^2) was 20.0% and the death rate ([11]; 10.8 mg/m^2) was 50.0%. For the same compound, the pest or weed control at 1 µg/mL [10] was 3.2%.
`O=C(Nc1cccc(C(=O)Nc2c(I)cc(C(F)(F)F)cc2C(F)(F)F)c1)c1ccccc1` [compound (C)] showed a death rate ([11]; 0.673 mg/m^2) of 0.0%, a death rate ([11]; 2.69 mg/m^2) of 11.1% and a death rate ([11]; 10.8 mg/m^2) of 10.0%. It also gave a pest or weed control at 1 µg/mL [10] of 0%.
`CCc1cc(C(F)(C(F)(F)F)C(F)(F)F)cc(C)c1NC(=O)c1cccc(NC(=O)C2CC2)c1` [compound (F)] was tested, and the death rate ([11]; 0.673 mg/m^2) was 0.0%, the death rate ([11]; 2.69 mg/m^2) was 0.0% and the death rate ([11]; 10.8 mg/m^2) was 0.0%.
